Data taken from US7968516B2, “Treatment of multiple sclerosis and other autoimmune diseases by use of calpin inhibitors” (ProTor Pharma Corporation, priority 2004, dated 2011).
Where a SMILES comes first, the peptide text is derived from it. [ ]: non-standard residue; d: D form. Cya = N[CH](CS(=O)(=O)O)C(=O)O

Assays:
[1] = Experiment 7: plasma and retina concentrations after oral CLA-acetal; assay type: in vivo, Sprague-Dawley rats; settings: after 10 mg/kg oral CLA-acetal
Experimental: Male Sprague-Dawley rats (n=5 per time point, weight 200-250 g) were administer 10 mg/kg CLA-acetal by oral gavage, formulated as a 0.6% solution in phosphate-buffered saline. At 0.1, 0.25, 0.5, 1, 2, 4, 8, 12 and 24 hours, the rats were anesthetized, blood samples were collected, and the retinas were isolated. The plasma samples (200 μL) were treated with 1 mL methanol and centrifuged to remove protein. The supernatants from centrifugation were evaporated, and the residue was taken up in 0.02% aqueous ammonium heptafluorobutyrate (1 mL). The retina samples were homogenized, treated with methanol, centrifuged, and evaporated, and the residue was taken up in 0.02% aqueous ammonium heptafluorobutyrate (1 mL). The plasma and retinal concentrations of CLA and CLA-acetal were determined by liquid chromatography followed by turbo ion spray mass spectrometry on an MDS-Sciex API 4000 triple-quadropole mass spectrometer equipped with a turbo ion spray source. Elution peaks yielding ions corresponding to CLA or CLA-acetal were integrated and used to determine the amount of compound present, by reference to standards. Data reduction was performed using Sciex Analyst version 1.3 software. The peak concentrations (Cmax) were estimated from the concentrations of CLA measured over time.

[2] = test system: outer hair cells of the cochlea; assay: Experiment 6: acoustic trauma, outer hair cell counts; assay type: in vivo, chinchillas; settings: 7 mg/kg/day i.p. for seven days; as a function of distance from apex of cochlea
Experimental: (§1) Twelve chinchillas were divided into treatment and control groups (six animals each). The treatment groups received 7 mg/kg/day CLA i.p., for seven days. The control groups received an identical volume of PBS vehicle. Starting on day 0, all of the animals were exposed to a 105 decibel sound pressure level (SPL) noise with a frequency band centered on 4 kilohertz (kHz). The noise exposure lasted for 48 hours, ending two days after the beginning of the dose. Approximately 4 weeks after the noise exposure and dosing, the animals were anesthetized, tracheotimized, and placed upon a heating pad (37 degrees C.). A silver-ball electrode was attached to the round window of the left and right ears to record the compound action potential (CAP). CAP input functions were recorded at 0.5, 1, 2, 4, 8, 16 kHz tone burst levels generated by a digital-to-analog converter attached to a computer. The CAP threshold shift is the change in sound level required to generate an action potential at the electrode subsequent to noise exposure, and increases in the threshold shift reflect increased hearing loss. […] After the CAP threshold shifts were measured, the animals were decapitated, and the cochleae were removed. The hair cells from 11 cochleae were evaluated histologically. […] The numbers of outer hair cells (#OHC) were counted as a function of the distance from the apex of the cochlea. […]

[3] = test system: spinal cord white matter of EAE mice; assay: Experiment 2: Luxol Fast Blue staining, myelin content of spinal cord; assay type: in vivo; settings: lumbar spinal cord, CLA-treated EAE mice
Experimental: Luxol Fast Blue (LFB) Staining of Spinal Cord Tissues: This staining method, which identifies changes in myelin content of CNS tissues, was performed as previously described (39). Six-10 μm tissue sections were prepared from the lumbar spinal cords of all mice at the end of the experiment. The sections were stained with LFB and counterstained with eosin and cresyl violet to observe changes in the myelin content of the control and treatment groups: A: CFA control; B: MOG/CFA immunized: C; MOG/CFA immunized and CLA-treated. 20× magnification. All myelin containing regions stain blue.

[4] = test system: amyloid precursor protein (APP); assay: Experiment 4: accumulation of amyloid precursor protein in axons; assay type: in vivo, mice; settings: spinal cord, day 30, anti-APP antibody
Excerpt: Spinal cord tissue taken from mice at day 30 was stained with a fluorescently-labeled anti-APP antibody.

[5] = test system: spinal cord axons of EAE mice; assay: Experiment 4: axonal integrity by LFB staining; assay type: in vivo; settings: day 30 post-immunization
Excerpt: Evaluation of axonal integrity using LFB staining: Spinal cord tissue was taken from mice at day 30 post-immunization, approximately 13 days into the chronic phase of EAE. Myelin is stained a blue color by LFB, and the appearance of a normal myelin-coated axon, taken from spinal cord tissue, is shown longitudinally in FIG. 8A.

[6] = test system: chronic phase of EAE in C57BL/6J mice; assay: Experiment 4: chronic phase EAE clinical scores; assay type: in vivo; settings: 30 days
Experimental: (§2) Clinical evaluation: Mice were evaluated daily for clinical signs of disease for up to 19 days after inoculation. Clinical severity was assessed on a scale of 0-6 as follows: • […] abnormality • 1 ? mild hind limb weakness (some difficulty righting themselves when turned on their backs), sometimes associated with a weak or floppy tail. • 2 ? moderate hind limb weakness associated with a floppy tail. • 3 ? paralysis of hind limbs, sometimes more marked on one side, but no forelimb weakness. • 4 ? hind leg paralysis accompanied by forelimb weakness. • 5 ? quadriplegia; paralysis of both hind limbs and forelimbs. • 6 ? moribund or death.
The chronic phase of EAE occurs after the clinical score of an affected mouse reaches a plateau at the highest level of the acute phase of the disease. In this chronic phase, more extensive damage occurs to nerve axons, beyond the demyelination observed in the acute phase of the disease (22). EAE was induced in 7-8 week-old female C57BL/6J “mice” by subcutaneous (s.c.) injection in each flank with 100 μl of an emulsion containing […] Freund's Adjuvant supplemented with 500 μg heat inactivated mycobacterium tuberculosis (Sigma St. Louis, Mo.) and 300 μg MOG 35-55. 100 ng of Pertussis toxin (PT) was given intraperitoneally on days 0 and 2 post-immunization. […]

[7] = test system: MOG aa35-55 induced EAE in C57BL/6J mice; assay: Experiment 1: EAE clinical scores, CLA started at immunization; assay type: in vivo
Experimental: To induce EAE, 7-8 week-old female C57BL/6J mice (Jackson Laboratories, Bar Harbor, Md.) were used. Animals were housed according to IACUC regulations in an AAALAC certified facility. Each was injected subcutaneously (s.c.) at two sites on the flanks with 300 μg of myelin oligodendrocyte glycoprotein (MOG) peptide 35-55 in Complete Freund's Adjuvant (CFA) twice with a one week interval between injections, as previously reported (14). Pertussis toxin (PT) was given intraperitoneally on days 0 and 2 post-immunization. CLA was administered to 12 MOG/CFA immunized mice, i.p. at an initial dose of one mg/mouse, starting on the day of the second immunization, followed by 0.5 mg/mouse/day until the end of the experiment, which lasted 19 days. […]
as §2, with “death. […]” for “death.”

calpain = assay: Experiment 2: immunofluorescent staining for calpain, CD11b and CD45 in spinal cord white matter; assay type: in vivo; settings: untreated versus CLA-treated EAE mice
Experimental: Expression of Calpain in Spinal Cord White Matter: Expression of calpain was determined in spinal cord tissues collected from all experimental and control groups of mice at the end of the experiment. Sections of paraformaldehyde-fixed tissues were stained with antibodies against calpain (FITC conjugated), CD11b (MΦ/microglia marker)(Texas Red-conjugated) and CD45 (leukocyte common antigen) (FITC-conjugated). Referring to FIG. 5, six 10 μm sections were stained with anti-calpain antibody and specific cell marker antibodies (CD45, CD11b). Positive staining for calpain (A, B, C); cells positive for MΦ/microglia marker (CD11b^+) (D, E, F); cells positive for leukocyte common antigen (CD 45^+)(G, H, I). 20× magnification. […] All leukocytes including MΦ, but not microglia, are stained with CD45.

[8] = test system: MOG aa35-55 induced EAE in C57BL/6J mice; assay: Experiment 3: EAE clinical scores, CLA twice daily after disease process started; assay type: in vivo
Experimental: as §2
To induce EAE, mice were each inoculated once with MOG aa35-55 in Complete Freund's Adjuvant (CFA) and Pertussis toxin as previously described. Thirty 7 to 8-week-old female C57BL/6J mice (Jackson Laboratories, Bar Harbor, Mass.) were used in this experiment. […] Controls included two groups of 4 mice for CLA only and CFA/PT only and 4 were left as normal controls. CLA was dissolved in PBS and each mouse in the treatment group was injected i.p. with 200 μl of PBS containing 0.5 mg of CLA every 12 hours until the end of the experiment on day 25 pi. Mice were evaluated daily for clinical signs and symptoms of EAE and graded on a 0-6 scale for up to 25 days after inoculation as detailed above. Scores of asymptomatic mice (score=0) were included in the calculation of the daily mean clinical score for each group.

[9] = test system: spinal cord white matter of EAE mice; assay: Experiment 2: H&E staining, cellular infiltration of spinal cord white matter; assay type: in vivo; settings: CLA-treated EAE mice, tissues at end of experiment
Experimental: Hematoxylin and Eosin Staining (H&E): H&E staining was used to show cellular infiltration of spinal cord white matter in mice with acute EAE in comparison with other groups of CFA control and CLA-treated EAE mice, as previously described (14). All staining was performed on tissues that were collected at the end of the experiment. In FIG. 3, 6-10 μm tissue sections were prepared from spinal cords of all mice at the end of the experiment. These tissues were stained with H&E to show inflammatory infiltration (indicated by arrows). A: CFA control; B: MOG/CFA immunized; C: MOG/CFA immunized and CLA-treated. 20× magnification.

[10] = test system: chinchillas exposed to 105 decibel SPL noise; assay: Experiment 6: acoustic trauma, compound action potential (CAP) threshold shift; assay type: in vivo; settings: 7 mg/kg/day i.p. for seven days; about 4 weeks after noise exposure
Experimental: as §1

[11] = cited from earlier work
[12] = test system: cochlear and vestibular hair; settings: cited from earlier work
EAE in rats = settings: cited from earlier work
[13] = CLA 0.5 mg i.p. every 12 hours from day 7 pi
[14] = CLA twice daily started after signs of stage 2 EAE

## CC(C)CC(NC(=O)C(N)CS(=O)(=O)O)C(=O)NC(C=O)CCCNC(=N)N (stereo not drawn) [CLA, cysteyl-leucyl-argininal] (H-[Cya]-Leu-Arg-aldehyde; configuration not given here)
[1]
  concentrations in retina compared with plasma: much higher in retina than in plasma
[2]
  numbers of outer hair cells (#OHC): increase in the number of outer hair cells at all distances from the apex
[3]
  demyelination (LFB staining): fewer areas of demyelination
[4]
  accumulation of APP in axons: reduces accumulation of APP
[5]
  axonal integrity (LFB staining): marked improvement in axonal integrity
[6]; CLA 2 mg/mouse/day i.p. from day 7 (prior to onset)
  maximum clinical score: below 0.5
[6]; CLA 2 mg/mouse/day i.p. from day 12 (after onset)
  maximum clinical score: < 1.0
[7]; MOG/CFA immunized mice, CLA i.p. one mg/mouse then 0.5 mg/mouse/day, scale 0-6, 19 days
  average clinical score (ACS): 1.86
[7]; control mice not immunized with MOG
  effect of CLA only or CFA/CLA on mice: no effect
calpain
  CD45+ cells (leukocytes): only marginally higher than CLA-treated EAE mice
  expression of calpain in spinal cord white matter: elevated in untreated EAE mice (FIG. 5B) as compared with CLA-treated EAE mice
  presence of macrophages/microglia (CD11b+ cells): higher in untreated EAE mice (FIG. 5E) than CLA-treated EAE
[8]; [13]
  onset of signs of EAE: 15 day pi
  severity of EAE symptoms: did not develop severe paralysis of the limbs
[8]; [14]
  average clinical score (ACS) on day 17 pi: 1.60
  clinical score on day 25 pi: less than two
[8]; D7 CLA-treated MOG/CFA mice
  clinical score on day 25 pi: less than one
[8]; D7 CLA-treated MOG/CFA mice, 0.5 mg i.p. every 12 hours
  average clinical score (ACS) on day 17 pi: 0.5
[8]; control mice, CLA only
  health of CLA only mice: remained healthy
[9]
  cellular infiltration and perivascular cuffing (H&E): moderate cellular infiltration and perivascular cuffing
[10]
  CAP threshold shift: decreased the CAP threshold shift

## CC(=O)N[C@@H](CC(C)C)C(=O)N[C@@H](CC(C)C)C(=O)N[C@H](C=O)CCCNC(=N)N [leupeptin]
[11]
  cellular permeability: poor cellular permeability
[12]
  protection from gentamycin ototoxicity: protects cochlear and vestibular hair from gentamycin oxotoxicity
EAE in rats
  suppression of EAE: suppressing EAE
